Measurements reported in patent publication US8546377B2 (AbbVie Inc., priority 2009, dated 2013).

Target: T1, h-5-HT6 receptor (Homo sapiens, UniProt P50406)
T1 construct: expressed in transfected cells; host or cells: HEK293 cells (membrane preparation)
Assay: Human 5-HT6 receptor radioligand binding assay ([3H]-LSD, HEK293 membranes)
Conditions: HEK293 membranes, 1 nM [3H]-lysergic acid diethylamide, 3.5 hours at room temperature; read-out: Ki (μM), 5-HT6 Agonist Site Radioligand Binding

T1 sequence (P50406 whole entry): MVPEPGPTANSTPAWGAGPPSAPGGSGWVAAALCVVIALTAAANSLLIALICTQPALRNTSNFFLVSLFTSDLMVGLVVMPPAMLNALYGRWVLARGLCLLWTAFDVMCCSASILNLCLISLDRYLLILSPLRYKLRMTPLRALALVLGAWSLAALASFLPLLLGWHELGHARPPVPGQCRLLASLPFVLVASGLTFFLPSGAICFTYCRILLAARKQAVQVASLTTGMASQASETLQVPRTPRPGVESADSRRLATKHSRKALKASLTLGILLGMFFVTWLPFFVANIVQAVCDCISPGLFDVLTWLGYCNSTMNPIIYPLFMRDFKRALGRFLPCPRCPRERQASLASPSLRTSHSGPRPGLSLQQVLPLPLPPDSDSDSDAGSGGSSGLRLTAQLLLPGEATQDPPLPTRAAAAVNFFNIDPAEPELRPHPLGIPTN

Ki: 0.045 µM
SMILES: O=C1NCC2CNCCN2c2ccc(NS(=O)(=O)c3ccccc3)cc21 (stereo not shown) [Example 48, N-(7-oxo-1,2,3,4,4a,5,6,7-octahydropyrazino[1,2-a][1,4]benzodiazepin-9-yl)benzenesulfonamide]
